Source: patent publication US10722501B2 (BAYER AKTIENGESELLSCHAFT, priority 2016, dated 2020)

Each compound was assayed against T1, recombinant full-length human prolyl endopeptidase (PREP) (Homo sapiens, UniProt P48147) (assay: Biochemical human prolyl endopeptidase (PREP) assay with fluorescently labelled substrate). Settings: substrate Z-Gly-Pro-AMC 50 μM, 32° C., 60 min; some as mean values from multiple independent determinations.
T1 construct: To recombinant full-length human prolyl endopeptidase (PREP, R&D-Systems, 4308-SE); purchased R&D-Systems 4308-SE
T1 sequence (P48147 1-710): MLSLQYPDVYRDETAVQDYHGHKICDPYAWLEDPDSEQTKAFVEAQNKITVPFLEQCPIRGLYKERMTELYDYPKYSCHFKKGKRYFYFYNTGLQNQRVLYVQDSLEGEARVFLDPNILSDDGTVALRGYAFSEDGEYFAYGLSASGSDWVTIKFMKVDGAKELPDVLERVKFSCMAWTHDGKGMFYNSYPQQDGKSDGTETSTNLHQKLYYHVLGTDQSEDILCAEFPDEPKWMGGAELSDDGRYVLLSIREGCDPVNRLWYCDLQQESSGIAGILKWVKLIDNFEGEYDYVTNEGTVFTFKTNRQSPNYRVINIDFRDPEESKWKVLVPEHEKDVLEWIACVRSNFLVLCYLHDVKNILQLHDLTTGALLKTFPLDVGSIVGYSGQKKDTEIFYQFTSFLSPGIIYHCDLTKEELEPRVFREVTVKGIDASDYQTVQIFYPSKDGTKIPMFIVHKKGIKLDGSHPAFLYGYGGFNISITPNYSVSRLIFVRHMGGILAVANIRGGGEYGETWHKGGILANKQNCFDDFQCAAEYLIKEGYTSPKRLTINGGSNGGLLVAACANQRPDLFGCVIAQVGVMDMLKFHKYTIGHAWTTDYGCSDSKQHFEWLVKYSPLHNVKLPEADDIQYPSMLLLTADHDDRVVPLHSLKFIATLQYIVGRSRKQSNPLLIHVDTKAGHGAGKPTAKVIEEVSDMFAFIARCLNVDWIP
Summary of the method: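 0.4 nM (final, example) recombinant PREP in pH 7.5 Tris buffer with EDTA, GSH, BSA and Brij-35; compounds at 1 nM to 30 μM. Reaction started with 50 μM Z-Gly-Pro-AMC and followed by fluorescence (ex 360/em 465 nm) at 32° C for 60 min. IC50 interpolated from percent activity based on initial slopes.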

Row | Compound | IC50
1 | COc1ccc(Cn2nc3n(c2=O)C(C(=O)N2CCCC2)CCC3)cc1C(F)(F)F (racemic) [Example 63] | 0.74 nM
2 | O=C(C1C(C(F)(F)F)CCc2nn(Cc3ccc(Cl)cn3)c(=O)n21)N1C[C@@H](F)[C@@H](F)C1 (mixture of isomers) [Example 300, (5RS,6RS)-2-[(5-Chloropyridin-2-yl)methyl]-5-{[(3R,4S)-3,4-difluoropyrrolidin-1-yl]carbonyl}-6-(trifluoromethyl)-5,6,7,8-tetrahydro[1,2,4]triazolo[4,3-a]pyridin-3(2H)-one] | 19 nM
3 | O=C([C@@H]1CCCc2nn(Cc3nccc(C(F)(F)F)c3Cl)c(=O)n21)N1CC[C@H](F)C1 [Example 392, (5S)-2-{[3-Chloro-4-(trifluoromethyl)pyridin-2-yl]methyl}-5-{[(3S)-3-fluoropyrrolidin-1-yl]carbonyl}-5,6,7,8-tetrahydro[1,2,4]triazolo[4,3-a]pyridin-3(2H)-one] | 0.46 nM
4 | O=C(C1CC(C(F)(F)F)Cc2nn(Cc3ncc(F)cc3Cl)c(=O)n21)N1CC[C@H](F)C1 (mixture of isomers) [Example 571, (5RS,7RS)-2-[(3-Chloro-5-fluoropyridin-2-yl)methyl]-5-{[(3S)-3-fluoropyrrolidin-1-yl]carbonyl}-7-(trifluoromethyl)-5,6,7,8-tetrahydro[1,2,4]triazolo[4,3-a]pyridin-3(2H)-one] | 1.1 nM
5 | O=C(C1CC(C(F)(F)F)Cc2nn(Cc3ncc(C(F)(F)F)cc3Cl)c(=O)n21)N1CC[C@H](F)C1 (mixture of isomers) [Example 562, (5RS,7RS)-2-{[3-Chloro-5-(trifluoromethyl)pyridin-2-yl]methyl}-5-{[(3S)-3-fluoropyrrolidin-1-yl]carbonyl}-7-(trifluoromethyl)-5,6,7,8-tetrahydro[1,2,4]triazolo[4,3-a]pyridin-3(2H)-one] | 1.33 nM
6 | O=C([C@@H]1CCCc2nn(Cc3ccc(C(F)(F)F)c(Cl)c3)c(=O)n21)N1CCC(F)(F)C1 [Example 460, (5S)-2-[3-Chloro-4-(trifluoromethyl)benzyl]-5-[(3,3-difluoropyrrolidin-1-yl)carbonyl]-5,6,7,8-tetrahydro[1,2,4]triazolo[4,3-a]pyridin-3(2H)-one] | 0.17 nM
7 | CC1CCC(C(=O)N2C[C@@H](F)[C@@H](F)C2)n2c1nn(Cc1ccc(F)c(Cl)c1)c2=O (mixture of isomers) [Example 319, (5RS,8RS)-2-(3-Chloro-4-fluorobenzyl)-5-{[(3R,4S)-3,4-difluoropyrrolidin-1-yl]carbonyl}-8-methyl-5,6,7,8-tetrahydro[1,2,4]triazolo[4,3-a]pyridin-3(2H)-one] | 0.63 nM
8 | O=C(C1CCc2nn(Cc3ccnc(C(F)(F)F)c3F)c(=O)n21)N1CC(F)C1 (racemic) [Example 182, (5RS)-5-[(3-Fluoroazetidin-1-yl)carbonyl]-2-{[3-fluoro-2-(trifluoromethyl)pyridin-4-yl]methyl}-2,5,6,7-tetrahydro-3H-pyrrolo[2,1-c][1,2,4]triazol-3-one] | 37.5 nM
9 | COc1ccc(Cn2nc3n(c2=O)C(C(=O)N2CCC(F)(F)C2)CCC3)cc1Cl (racemic) [Example 49, (5RS)-2-(3-Chloro-4-methoxybenzyl)-5-[(3,3-difluoropyrrolidin-1-yl)carbonyl]-5,6,7,8-tetrahydro[1,2,4]triazolo[4,3-a]pyridin-3(2H)-one] | 1.75 nM
10 | CC1CCC(C(=O)N2CC(F)C2)n2c1nn(Cc1ccc(F)c(Cl)c1)c2=O (racemic) [Example 321, (5RS,8RS)-2-(3-Chloro-4-fluorobenzyl)-5-[(3-fluoroazetidin-1-yl)carbonyl]-8-methyl-5,6,7,8-tetrahydro[1,2,4]triazolo[4,3-a]pyridin-3(2H)-one] | 0.93 nM
11 | Cc1ccc(Cn2nc3n(c2=O)C(C(=O)N2CCCC2)CC(C(F)(F)F)C3)cc1 (single isomer, unassigned) [Example 226, (5RS,7RS)-2-(4-Methylbenzyl)-5-(pyrrolidin-1-ylcarbonyl)-7-(trifluoromethyl)-5,6,7,8-tetrahydro[1,2,4]triazolo[4,3-a]pyridin-3(2H)-one] | 3.6 nM
12 | O=C([C@@H]1CCCc2nn(Cc3cccc(Br)c3)c(=O)n21)N1C[C@@H](F)[C@@H](F)C1 [Example 211, (5S)-2-(3-Bromobenzyl)-5-{[(3R,4S)-3,4-difluoropyrrolidin-1-yl]carbonyl}-5,6,7,8-tetrahydro[1,2,4]triazolo[4,3-a]pyridin-3(2H)-one] | 0.15 nM
13 | O=C(C1CC(C(F)(F)F)Cc2nn(Cc3ncc(F)cc3F)c(=O)n21)N1CCC(F)(F)C1 (single isomer, unassigned) [Example 574, (5RS,7RS)-2-[(3,5-Difluoropyridin-2-yl)methyl]-5-[(3,3-difluoropyrrolidin-1-yl)carbonyl]-7-(trifluoromethyl)-5,6,7,8-tetrahydro[1,2,4]triazolo[4,3-a]pyridin-3(2H)-one] | 5.2 nM

Further compounds by falling IC50, results first:

Row | IC50 | Compound
14 | 145 nM | Cc1ccc(Cn2nc3n(c2=O)C(C(=O)N2CC(=O)C2)CCC3)cc1 (racemic) [Example 133, (5RS)-2-(4-Methylbenzyl)-5-[(3-oxoazetidin-1-yl)carbonyl]-5,6,7,8-tetrahydro[1,2,4]triazolo[4,3-a]pyridin-3(2H)-one]
15 | 32 nM | Cc1ccc(Cn2nc3n(c2=O)C(C(=O)N2CCC(C)CC2)CCC3)cc1 (racemic) [Example 160, (5RS)-2-(4-Methylbenzyl)-5-[(4-methylpiperidin-1-yl)carbonyl]-5,6,7,8-tetrahydro[1,2,4]triazolo[4,3-a]pyridin-3(2H)-one]
16 | 23 nM | O=C(C1CC(C(F)(F)F)Cc2nn(Cc3cncc(Cl)c3)c(=O)n21)N1C[C@@H](F)[C@@H](F)C1 (single isomer, unassigned) [Example 268]
17 | 6.8 nM | O=C(C1CC(C(F)(F)F)Cc2nn(Cc3ccc(C(F)(F)F)nc3)c(=O)n21)N1CC[C@H](F)C1 (mixture of isomers) [Example 235, (5RS,7RS)-5-{[(3S)-3-Fluoropyrrolidin-1-yl]carbonyl}-7-(trifluoromethyl)-2-{[6-(trifluoromethyl)pyridin-3-yl]methyl}-5,6,7,8-tetrahydro[1,2,4]triazolo[4,3-a]pyridin-3(2H)-one]
18 | 6.4 nM | O=C([C@@H]1CCCc2nn(Cc3ccc(Cl)nc3)c(=O)n21)N1CC(F)C(F)C1 (single isomer, unassigned) [Example 552]
19 | 1.6 nM | O=C([C@@H]1CCCc2nn(Cc3ncccc3Cl)c(=O)n21)N1C[C@@H](F)[C@@H](F)C1 [Example 395, (5S)-2-[(3-Chloropyridin-2-yl)methyl]-5-{[(3R,4S)-3,4-difluoropyrrolidin-1-yl]carbonyl}-5,6,7,8-tetrahydro[1,2,4]triazolo[4,3-a]pyridin-3(2H)-one]
20 | 1.55 nM | O=C([C@@H]1CCCc2nn(Cc3ncc(Cl)cc3Cl)c(=O)n21)N1CCC(F)(F)C1 [Example 399, (5S)-2-[(3,5-Dichloropyridin-2-yl)methyl]-5-[(3,3-difluoropyrrolidin-1-yl)carbonyl]-5,6,7,8-tetrahydro[1,2,4]triazolo[4,3-a]pyridin-3(2H)-one]
21 | 1.3 nM | O=C(C1CC(C(F)(F)F)Cc2nn(Cc3ccc(Cl)nc3)c(=O)n21)N1CC[C@@H](F)C1 (single isomer, unassigned) [Example 246]
22 | 1.05 nM | CC1Cc2nn(Cc3ccnc(C(F)(F)F)c3F)c(=O)n2C(C(=O)N2CC(F)C2)C1 (racemic) [Example 335, (5RS,7RS)-5-[(3-Fluoroazetidin-1-yl)carbonyl]-2-{[3-fluoro-2-(trifluoromethyl)pyridin-4-yl]methyl}-7-methyl-5,6,7,8-tetrahydro[1,2,4]triazolo[4,3-a]pyridin-3(2H)-one]
23 | 0.94 nM | O=C([C@@H]1CCCc2nn(Cc3ncc(Cl)cc3F)c(=O)n21)N1CCSC1 [Example 507, (5S)-2-[(5-Chloro-3-fluoropyridin-2-yl)methyl]-5-(1,3-thiazolidin-3-ylcarbonyl)-5,6,7,8-tetrahydro[1,2,4]triazolo[4,3-a]pyridin-3(2H)-one]
24 | 0.91 nM | O=C([C@@H]1CCCc2nn(Cc3ccc(Cl)nc3)c(=O)n21)N1CC(F)C1 [Example 421, (5S)-2-[(6-Chloropyridin-3-yl)methyl]-5-[(3-fluoroazetidin-1-yl)carbonyl]-5,6,7,8-tetrahydro[1,2,4]triazolo[4,3-a]pyridin-3(2H)-one]
25 | 0.57 nM | O=C(C1CC(C(F)(F)F)Cc2nn(Cc3ncc(F)cc3F)c(=O)n21)N1CC[C@H](F)C1 (single isomer, unassigned) [Example 570]
26 | 0.061 nM | N#C[C@@H]1CCCN1C(=O)[C@@H]1CCCc2nn(Cc3ncc(Cl)cc3F)c(=O)n21 [Example 514, (2S)-1-({(5S)-2-[(5-Chloro-3-fluoropyridin-2-yl)methyl]-3-oxo-2,3,5,6,7,8-hexahydro[1,2,4]triazolo[4,3-a]pyridin-5-yl}carbonyl)pyrrolidine-2-carbonitrile]
